Experimental data published in US20220054476A1, “SUSTAINED LOCAL DRUG LEVELS FOR INNATE IMMUNE AGONISTS” (Ascendis Pharma Oncology Division A/S, priority 2019, published 2022).
Marks after values point to notes of the source that are not given here.

Experiments:
CT26 tumor cells = experiment: In vivo anti-tumor efficacy, absolute tumor volumes (Example 11); parameters: species or system BALB/C mice; details: single intratumoral dose (4: 20 μg; 13c: 50 μL)
Experimental: Mice were subcutaneously implanted with 3×10^5 CT26 tumor cells in the left and right flanks. […] Hydrogels were administered as suspensions in PBST buffer. Following treatment initiation, anti-tumor efficacy was assessed by determination of tumor volumes at various time points from tumor size measurements with a caliper. Tumor volumes were calculated according to the formula: Tumor volume=(L×W^2)×0.5 where L is the length of the tumor and W the width (both in mm). Mice were removed from the study once tumors were greater than 1500 mm^3.

[1] = system: cytokine and chemokine genes (Il1a, Ccl3, Il1b, Cxcl2, Ccl2, Ccl4, Il10, Ifna4, Cxcl1, Cxcl10, Tnf) in PBMC; experiment: PBMC gene expression 6 hours post-treatment, qPCR (Example 17); assay type: in vivo, BALB/C mice; parameters: key to Cxcl2 gene expression, Mean (2^ΔΔCT) / Ccl2 gene expression, Mean (2^ΔΔCT) / Ccl4 gene expression, Mean (2^ΔΔCT) / Ifna4 gene expression, Mean (2^ΔΔCT) / Cxcl1 gene expression, Mean (2^ΔΔCT) / Cxcl10 gene expression, Mean (2^ΔΔCT) / Il1a gene expression, Mean (2^ΔΔCT) / Tnf gene expression, Mean (2^ΔΔCT): fold change vs untreated, 2^-ΔΔCT, normalized to B2M/UBB/GAPDH
Experimental: Hydrogels were administered as suspensions in […]. […] Tumors were excised, weighed and snap frozen. […] For PBMC isolations, approximately 600 μl of whole blood was collected via cardiac puncture. The collected whole blood from each individual mouse was diluted with a 1:1 ratio of pre-warmed PBS supplemented with 2% Fetal Bovine Serum (FBS). Then an equal volume of Histopaque-1083 was added to a new sterile 15 mL conical tube, where the diluted whole blood was layered over the Histopaque-1083. The mixture was then centrifuged at 400 g for 30 minutes. The top plasma layer was discarded, and the white translucent interlayer (mononuclear cells) was carefully transferred to a new sterile centrifuge tube. The mononuclear cells were then washed with PBS supplemented with 2% FBS and then were spun down at 250 g for 10 minutes. Afterwards, the cells were lysed with 2 ml of Ammonium-Chloride-Potassium (ACK) lysis buffer (Gibco) for 5 minutes at room temperature to get rid of the red blood cells following manufacturer's instruction. Subsequently, the cells were washed twice with PBS supplemented with 2% FBS and were centrifuged at 250 g for 10 minutes. Then, the supernatant was removed and the PBMC cell pellet was lysed in RLT buffer (Qiagen) and stored at −80° C. before being proceeded to RNA extraction and isolation. Lysates from untreated control samples and 6 hour treated samples were thawed and RNA was isolated using the RNeasy Mini Kit (QIAGEN) following manufacturer's recommendations. Following the first column washing step, DNA was digested directly on the column using the RNase-free DNase Set (TIANGEN) following manufacturer's recommendations. RNA was eluted with RNase-free water. RNA concentrations were measured using a NanoDrop (ThermoFisher) and then adjusted to 200 ng/mL with RNase-free water. RNA quality was assessed using a NanoDrop (ThermoFisher). […] Reverse transcription was performed using random primers, 10 mM dNTP mix, and RNase inhibitor (TIANGEN). Reverse transcription was performed with the following thermal steps: 25° C. for 10 minutes, 37° C. for 120 minutes, 55° C. for 5 minutes. 200 ng of cDNA was used for quantitative PCR using the RT^2 SYBR Green ROX qPCR Master mix (2×) kit (QIAGEN) following manufacturer's recommendations. Probe sets used for qPCR reactions are as follows: [table] Cycle thresholds (CT) were collected using a 384-well platform ABI-7900H real-time qPCR system (Applied Biosystems). B2M, Ubb and GAPDH were used as housekeeping control genes. Data is reported as the average of the 2^-ΔΔCT values for each treatment. 2^-ΔΔCT values were calculated with the following formula: 2^-ΔΔCT=2^−(ΔCT(treated)−ΔCT(untreated)) ΔCT(treated)═CT(treated)−CT (average treated housekeeping) where CT(treated)═CT of the gene of interest of a sample triplicate in the treatment group and CT (treated housekeeping)=Total average CT of the B2M, UBB and GAPDH housekeeping genes of the same sample triplicate in the same treatment group. ΔCT(untreated)═CT (untreated)−CT (untreated housekeeping) where CT (untreated)=average of the CTs of the untreated triplicates at the same timepoint as the CT(treated) comparator and CT (untreated housekeeping)=Total average CT of the B2M, UBB and GAPDH housekeeping genes of the untreated triplicates. For each gene, 3 technical replicates were analyzed per biological replicate. Undetermined technical replicate CT values were recorded as zero ΔCT values. 4-5 biological replicates were assessed in total.

[2] = Resiquimod concentration in plasma samples after intratumoral injection (Example 17); assay type: in vivo, BALB/C mice; details: female, BALB/C, mouse, other: intratumoral injection, 10 μg
Experimental: Hydrogels were administered as suspensions in PTP buffer. […] Tumors were excised, weighed and snap frozen.

in vivo = experiment: in vivo; parameters: species or system WISTAR rats; details: male, Wistar, rat, sc, 25 ug; for half-life: t1/2 (biphasic)
Excerpt: Hydrogels were suspended (ca. 6% wt/v) PBST buffer at pH 7.4. […] Blood samples were withdrawn and used for plasma generation over the course of 28 d. […] Plasma concentration profiles were generated and analyzed with Phoenix WinNonlin software (Certara, Princeton, N.J., USA).

[3] = system: IFNγ, IL-6, CCL2/MCP-1, TNFα in plasma; experiment: In vivo cytokine induction, plasma cytokine levels (Example 12); parameters: species or system BALB/C mice; details: for IFNγ plasma level, Mean: values at/below LLOQ set to 0.01
Experimental: Mice were subcutaneously implanted with 3×10^5 CT26 tumor cells in the left and right flanks. […] Hydrogels were administered as suspensions in PBST buffer. K2 EDTA-preserved blood samples were collected by retro-orbital bleed at various time points following drug administration and plasma was isolated following centrifugation at 2000×g for 5 minutes at 4° C. and frozen. Plasma samples were stored at −80° C. Plasma was thawed and undiluted samples were assessed for cytokine levels using the 36-Plex Mouse ProcartaPlex™ Cytokine Panel 1A (ThermoFisher Scientific) following manufacturer's recommendations. Cytokines were measured on the Bio-Plex 200 (BioRad) following kit instructions.

[4] = system: Ly-6C^+ antigen presenting cells, MHCII^+ antigen presenting cells, CD8^+, Ly-6C^+ CD8^+ and CD4^+ T cells of tumor draining lymph nodes; experiment: Flow cytometric profiling of tumor draining lymph node immune cells (Example 15); assay type: in vivo, BALB/C mice; details: 7 days after randomization
Experimental: Hydrogels were administered as suspension in PTP buffer. Some cohorts were further treated with 20 μg human IL-2 (Peprotech, Rocky Hill, N.J.), intraperitoneally (I.P.), twice a day for 5 days. Mice were sacrificed 7 days after randomization (D0). Following sacrifice, tumor draining lymph nodes were isolated from both flanks and were dissociated mechanically to generate a single cell suspension at a cell concentration of 1×10^6 cells per sample. Cell suspensions were centrifuged at 300 g for 5 minutes. Supernatants were discarded and cells were resuspended in FACS buffer with 1 μg/ml Fc-Block and incubated at 4° C. for 10 minutes in the dark. Surface marker antibody mixtures (antibody concentration: 10 μg/mL) in FACS buffer were added to each sample and samples were incubated in the dark at 4° C. for 30 minutes. Cells were centrifuged at 300 g for 5 minutes and supernatants were discarded. Cells were washed and then resuspended with FACS buffer before cytometer collection.
After collection, FACS data was analyzed using FlowJo Version 10.6.1. Compensation was digitally adjusted using single antibody-stained beads. Samples with less than 90% viability, as determined by LiveDead cell staining, were excluded from the analysis. Cells were defined using the following gating strategy: • 1) Ly-6C^+ antigen presenting cells: FSC-H/FSC-A Singlets/LiveDead^−/CD45^+/CD3^−/CD335^−/Ly-6C^+ • 2) Ly-6C^+ MHCII^+ antigen presenting cells: FSC-H/FSC-A Singlets/LiveDead^−/CD45^+/CD3^−/CD335^−/Ly-6C^+/IA/IE (MHCII)^+ • 3) CD8^+ T cells: FSC-H/FSC-A Singlets/LiveDead^−/CD45^+/CD3^+/CD8 single positive • 4) Ly-6C^+ CD8^+ T cells: FSC-H/FSC-A Singlets/LiveDead^−/CD45^+/CD3^+/CD8 single positive/Ly-6C^+

[5] = 1 h post-treatment, single intratumoral dose
[6] = 3 h post-treatment, single intratumoral dose
[7] = 6 h post-treatment, single intratumoral dose
[8] = 10 h post-treatment, single intratumoral dose
[9] = 24 h post-treatment, single intratumoral dose

Compound: CCOCc1nc2c(N)nc3ccccc3c2n1CC(C)(C)O [Compound 4, Resiquimod]
- Absolute Tumor Volumes, Mean (CT26 tumor cells; day 0 post-treatment): 88.82 mm^3
- Absolute Tumor Volumes, Mean (CT26 tumor cells; day 2 post-treatment): 108.44 mm^3
- Absolute Tumor Volumes, Mean (CT26 tumor cells; day 4 post-treatment): 128.42 mm^3
- Absolute Tumor Volumes, Mean (CT26 tumor cells; day 7 post-treatment): 316.07 mm^3
- Absolute Tumor Volumes, Mean (CT26 tumor cells; day 9 post-treatment): 549.72 mm^3
- Absolute Tumor Volumes, Mean (CT26 tumor cells; day 11 post-treatment): 957.90 mm^3
- Absolute Tumor Volumes, Mean (CT26 tumor cells; day 14 post-treatment): 1220.96 mm^3
- Ccl2 gene expression, Mean (2^ΔΔCT) ([1]; qPCR): 6.75
- Ccl3 gene expression, Mean (2^ΔΔCT) ([1]; qPCR): 1.43†
- Ccl4 gene expression, Mean (2^ΔΔCT) ([1]; qPCR): 1.31
- Cxcl1 gene expression, Mean (2^ΔΔCT) ([1]; qPCR): 7.41
- Cxcl2 gene expression, Mean (2^ΔΔCT) ([1]; qPCR): 35.37
- Cxcl10 gene expression, Mean (2^ΔΔCT) ([1]; qPCR): 45.38
- Ifna4 gene expression, Mean (2^ΔΔCT) ([1]; qPCR): 2.97
- Il1a gene expression, Mean (2^ΔΔCT) ([1]; qPCR): 0.41
- Il1b gene expression, Mean (2^ΔΔCT) ([1]; qPCR): 3.71†
- Il10 gene expression, Mean (2^ΔΔCT) ([1]; qPCR): 2.77†
- Tnf gene expression, Mean (2^ΔΔCT) ([1]; qPCR): 4.64
- Ccl2 Fold change (4/13i) ([1]; ratio of mean 4 to mean 13i): 2.82
- Ccl3 Fold change (4/13i) ([1]; ratio of mean 4 to mean 13i): 1.64
- Ccl4 Fold change (4/13i) ([1]; ratio of mean 4 to mean 13i): 1.74
- Cxcl1 Fold change (4/13i) ([1]; ratio of mean 4 to mean 13i): 11.54
- Cxcl2 Fold change (4/13i) ([1]; ratio of mean 4 to mean 13i): 6.43
- Cxcl10 Fold change (4/13i) ([1]; ratio of mean 4 to mean 13i): 21.41
- Ifna4 Fold change (4/13i) ([1]; ratio of mean 4 to mean 13i): 20.48
- Il1a Fold change (4/13i) ([1]; ratio of mean 4 to mean 13i): 1.78
- Il1b Fold change (4/13i) ([1]; ratio of mean 4 to mean 13i): 7.92
- Il10 Fold change (4/13i) ([1]; ratio of mean 4 to mean 13i): 2.29
- Tnf Fold change (4/13i) ([1]; ratio of mean 4 to mean 13i): 4.45
- concentration at 0 h ([2]; 0 hours): 210 ng/mL
- concentration at 6 h ([2]; 6 hours): 0.36 ng/mL
- concentration at 22 h ([2]; 22 hours): 0.022 ng/mL
- concentration at 72 h ([2]; 72 hours): 0.014 ng/mL
- AUC (in vivo): 65.4 ng·h/mL
- Cmax (in vivo): 23.1 ng/mL
- half-life (in vivo; first value): 1.5 h
- half-life (in vivo; second value): 10 h
- CCL2/MCP-1 plasma level, Mean [3, 5]: 357.83 pg/mL
- IL-6 plasma level, Mean [3, 5]: 3618.87†, ‡ pg/mL
- TNFα plasma level, Mean [3, 5]: 830.84 pg/mL
- IFNγ plasma level, Mean ([3]; 1 h post-treatment, single intratumoral dose (4: 20 μs; 13c: 50 μL)): 4.04 pg/mL
- CCL2/MCP-1 plasma level, Mean [3, 6]: 4230.35†, ‡ pg/mL
- IL-6 plasma level, Mean [3, 6]: 1739.75†, ‡ pg/mL
- TNFα plasma level, Mean [3, 6]: 136.25 pg/mL
- IFNγ plasma level, Mean [3, 6]: 15.49†, ‡ pg/mL
- CCL2/MCP-1 plasma level, Mean [3, 7]: 1039.17†, ‡ pg/mL
- IL-6 plasma level, Mean [3, 7]: 88.59 pg/mL
- TNFα plasma level, Mean [3, 7]: 35.49 pg/mL
- IFNγ plasma level, Mean [3, 7]: 40.72†, ‡ pg/mL
- CCL2/MCP-1 plasma level, Mean [3, 8]: 847.07† pg/mL
- IL-6 plasma level, Mean [3, 8]: 154.51 pg/mL
- TNFα plasma level, Mean [3, 8]: 43.32 pg/mL
- IFNγ plasma level, Mean [3, 8]: 28.19†, ‡ pg/mL
- CCL2/MCP-1 plasma level, Mean [3, 9]: 92.58 pg/mL
- IL-6 plasma level, Mean [3, 9]: 44.71 pg/mL
- TNFα plasma level, Mean [3, 9]: 9.74 pg/mL
- IFNγ plasma level, Mean [3, 9]: 2.38 pg/mL
- Frequency of CD4^+ T cells of CD3^+ T cells, Mean ([4]; injected right flank tumor): 69.1%
- Frequency of CD8^+ T cells of CD3^+ T cells, Mean ([4]; injected right flank tumor): 29.23%
- Frequency of IA-IE (MHCII)^+ antigen presenting cells of Ly-6C^+ antigen presenting cells, Mean ([4]; injected right flank tumor): 69.63%
- Frequency of Ly-6C^+ T cells of CD8^+ T cells, Mean ([4]; injected right flank tumor): 53.7%
- Frequency of Ly-6C^+ antigen presenting cells of non-T cells, Mean ([4]; injected right flank tumor): 2.5%
- Frequency of CD4^+ T cells of CD3^+ T cells, Mean ([4]; uninjected left flank tumor): 69.25%
- Frequency of CD8^+ T cells of CD3^+ T cells, Mean ([4]; uninjected left flank tumor): 29%
- Frequency of IA-IE (MHCII)^+ antigen presenting cells of Ly-6C^+ antigen presenting cells, Mean ([4]; uninjected left flank tumor): 35.05%
- Frequency of Ly-6C^+ T cells of CD8^+ T cells, Mean ([4]; uninjected left flank tumor): 48%
- Frequency of Ly-6C^+ antigen presenting cells of non-T cells, Mean ([4]; uninjected left flank tumor): 7.8%
